Data from ChEMBL document CHEMBL1134498, “Experimental and computational screening models for the prediction of intestinal drug absorption” (J Med Chem, 2001).
Where a SMILES comes first, the peptide text is derived from it.

Tests used:
[1] = Cellular permeability (Pc) (Caco-2 cell monolayer); type: ADME; settings: human, read-out: Pc
[2] = Apparent permeability coefficient (Papp) (Caco-2 cell monolayer); type: ADME, cell-based; settings: human
Homo sapiens = species on record: Homo sapiens; assay: Ratio of [(apical to basal)/(basal to apical)] (Caco-2 cell monolayer); type: ADME

Structure (SMILES) | Papp [1] [×10⁻⁶ cm/s] | Papp [2] [×10⁻⁶ cm/s] | Ratio (Homo sapiens)
OC[C@@H](O)[C@@H](O)[C@H](O)[C@H](O)CO [MANNITOL] | 0.19 | 0.11 | 0.89
COCCc1ccc(OCC(O)CNC(C)C)cc1 (stereo unspecified) [METOPROLOL] | – | 64 | 1
CN/C(=N/CCSCc1nc[nH]c1C)NC#N [CIMETIDINE] | 1.2 | 1.23 | 1.8
OC[C@H]1O[C@H](OC[C@H]2O[C@H](O[C@]3(CO)O[C@H](CO)[C@@H](O)[C@@H]3O)[C@H](O)[C@@H](O)[C@@H]2O)[C@H](O)[C@@H](O)[C@H]1O [RAFFINOSE] | 0.047 | 0.051 | 1.2
CCCc1nn(C)c2c(=O)[nH]c(-c3cc(S(=O)(=O)N4CCN(C)CC4)ccc3OCC)nc12 | 87 | 48 | 0.83
CC(C)NCC(O)COc1cccc2[nH]ccc12 (stereo unspecified) [PINDOLOL] | – | 36 | ~ 1
O=C(O)P(=O)(O)O [FOSCARNET] | 0.05 | 0.045 | 0.65
CC(=O)Nc1ccc(OCC(O)CNC(C)C)cc1 (stereo unspecified) [PRACTOLOL] | – | 1.8 | ~ 1
C=CCOc1ccccc1OCC(O)CNC(C)C (stereo unspecified) [OXPRENOLOL] | – | 61 | ~ 1
C[C@H](NC(=O)[C@@H](N)Cc1ccc(O)cc1)C(=O)N[C@@H](Cc1ccccc1)C(=O)N[C@@H](Cc1ccccc1)C(N)=O (H-YAFF-NH2) | 0.022 | 0.04 | –
NC(=O)[C@H](Cc1ccccc1)NC(=O)[C@H](Cc1ccccc1)NC(=O)[C@H](CCCN=C(N)N)NC(=O)[C@@H](N)Cc1ccc(O)cc1 (H-YRFF-NH2) | 0.023 | 0.037 | 0.41
N=C(N)NC(=O)c1nc(Cl)c(N)nc1N [AMILORIDE] | 0.78 | 0.56 | –
Cc1cc(=O)n(-c2ccccc2)n1C [ANTIPYRINE] | 215 | 77 | 1.1
CCN1CCCC1CNC(=O)c1cc(S(N)(=O)=O)ccc1OC (stereo unspecified) [SULPIRIDE] | 0.39 | 0.23 | –
Cc1ccccc1N1C(=O)c2cc(S(N)(=O)=O)c(Cl)cc2NC1C (stereo unspecified) [METOLAZONE] | 6.1 | 6.2 | 0.64
C=CCc1ccccc1OCC(O)CNC(C)C (stereo unspecified) [ALPRENOLOL] | – | 88 | ~ 1
O=C(O)c1cc(/N=N/c2ccc(S(=O)(=O)Nc3ccccn3)cc2)ccc1O [SULFASALAZINE] | 0.16 | 0.16 | 0.087
OC[C@H]1O[C@@H](O[C@@H]2[C@@H](CO)O[C@](O)(CO)[C@H]2O)[C@H](O)[C@@H](O)[C@H]1O [LACTULOSE] | 0.27 | 0.3 | 1.4
